Consider eleven compounds from patent publication US5691373A, “Nonpeptide endothelin antagonists I” (Warner-Lambert Company, priority 1995, dated 1997).

Read-outs that look alike come from different tables or passages of the source. Where a SMILES comes first, the peptide text is derived from it. [ ]: non-standard residue; d: D form.

In assay [1] the test system is ETA. The settings on record: cited from earlier work.
For assay [2], the system named is cerebral vasospasm. As to conditions: cited from earlier work.
Assay [3] deals with cerebral vasospasm. As to conditions: cited from earlier work; for early cerebral vasospasm following SAH: rat.
Assay [4] relates to ET-1 induced bronchoconstriction and tracheal smooth muscle contraction. The settings on record: allergic sheep; cited from earlier work.
The subject of assay [5] is cerebral vasospasm. As to conditions: in vivo; cited from earlier work.
For another assay, the system named is endotoxic shock. The settings on record: cited from earlier work.
A further assay concerns acute renal ischemia. The settings on record: rats; cited from earlier work.
Assay [6] deals with T1, ETB (Rattus norvegicus, UniProt P21451).
T1 sequence (P21451 27-442): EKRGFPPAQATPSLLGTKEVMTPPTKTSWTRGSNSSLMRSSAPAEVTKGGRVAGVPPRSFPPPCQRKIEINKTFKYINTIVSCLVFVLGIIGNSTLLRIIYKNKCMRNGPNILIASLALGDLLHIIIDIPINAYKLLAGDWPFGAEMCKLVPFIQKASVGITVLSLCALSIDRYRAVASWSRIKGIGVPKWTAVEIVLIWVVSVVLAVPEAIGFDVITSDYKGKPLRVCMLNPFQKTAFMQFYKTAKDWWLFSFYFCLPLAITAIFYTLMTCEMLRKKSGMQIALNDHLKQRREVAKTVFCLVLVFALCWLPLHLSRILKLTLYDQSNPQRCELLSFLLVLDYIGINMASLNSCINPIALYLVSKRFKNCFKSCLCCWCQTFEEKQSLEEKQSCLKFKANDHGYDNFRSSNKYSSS
Procedure: The tissue is made up of 20 mM tris(hydroxymethyl)aminomethane hydrochloride (Trizma) buffer, 2 mM ethylenediaminetetra acetate, 100 μM phenylmethylsulfonyl fluoride.
First, thaw one aliquot of frozen rat cerebellar membranes (2 mg protein in 0.5 mL). Next, add 0.5 mL membrane aliquot to 4.5 mL cold tissue buffer, polytron at 7,500 revolutions per minute for 10 seconds. Finally, dilute tissue suspension 1/100 (0.1 mL suspension+9.9 mL tissue buffer), polytron again, and place ice.
Mix in 150 μL of tissue to each tube, vortex briefly, then tap to force all liquids to bottom (total assay volume=250 μL). Then place the tubes in a 37° C. water bath for 2 hours.
Add 2.5 mL cold wash buffer (50 mM Trizma buffer) to each tube, filter, and then wash tube with additional 2.5 mL wash buffer and add to filter. Finally, wash filters with an additional 2.5 mL of cold wash buffer.
Count filters for radioactivity in gamma counter.

In assay [7] the target is T2, ETA (Oryctolagus cuniculus, UniProt A5A8K3).
T2 sequence (A5A8K3 21-427): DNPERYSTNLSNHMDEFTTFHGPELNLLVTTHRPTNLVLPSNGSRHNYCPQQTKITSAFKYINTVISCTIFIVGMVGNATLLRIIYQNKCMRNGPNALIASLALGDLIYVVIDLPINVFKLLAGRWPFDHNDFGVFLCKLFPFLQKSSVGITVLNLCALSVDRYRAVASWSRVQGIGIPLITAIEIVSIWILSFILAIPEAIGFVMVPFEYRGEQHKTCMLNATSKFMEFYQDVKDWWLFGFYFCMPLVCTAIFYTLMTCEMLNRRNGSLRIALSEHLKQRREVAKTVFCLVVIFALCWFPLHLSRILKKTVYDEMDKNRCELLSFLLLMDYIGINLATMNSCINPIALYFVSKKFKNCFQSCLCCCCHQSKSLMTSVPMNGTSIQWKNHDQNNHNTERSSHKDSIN

Assay [8] deals with T2, ETA. The assay can be described thus: VERA-A: antagonism of ET-1 stimulated vasoconstriction in the rabbit femoral artery (ETA). As to conditions: ET-1, rabbit femoral artery; for Kb: read-out: VERA-A pA2 (converted). It is filed as cell-based. The procedure, abridged:
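Endothelium-denuded 4-mm rings of femoral and pulmonary artery from male New Zealand rabbits. Resting tension 3.0 g for femoral and 4.0 g for pulmonary rings, with 90 min equilibration.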

Assay [9] concerns the target T2, ETA. This is another data set of the same source.
For assay [10], the system named is ETB. As to conditions: isolated, endothelium-intact porcine pulmonary arteries; cited from earlier work.
The next assay concerns the target T3, human ETB receptor (Homo sapiens, UniProt P24530).
T3 construct: expressed in transfected cells; host or cells: CHO-K1 cells, pRc-CMW (so in the source) expression vector, electroporation; membranes used
T3 sequence (P24530 27-442): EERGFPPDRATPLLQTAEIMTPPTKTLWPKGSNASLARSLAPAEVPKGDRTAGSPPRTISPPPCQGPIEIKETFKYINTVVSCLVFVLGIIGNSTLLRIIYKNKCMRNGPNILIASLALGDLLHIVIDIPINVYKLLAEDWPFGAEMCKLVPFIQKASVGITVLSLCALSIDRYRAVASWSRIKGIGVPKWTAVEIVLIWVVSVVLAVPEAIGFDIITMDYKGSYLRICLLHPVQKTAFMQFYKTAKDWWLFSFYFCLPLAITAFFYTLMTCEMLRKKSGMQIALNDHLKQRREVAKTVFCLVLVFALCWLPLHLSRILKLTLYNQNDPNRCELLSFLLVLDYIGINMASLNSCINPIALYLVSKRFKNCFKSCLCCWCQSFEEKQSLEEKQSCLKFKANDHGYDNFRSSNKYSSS
The assay is described as follows: ERBA-B: [125I]-ET-1 binding, recombinant human ETB receptor expressed in CHO-K1 cells. The settings on record: human cloned ETB receptor, read-out: ERBA-B IC50, human cloned receptor data.

Assay [11] deals with ET-1 Induced Pressor Response. The assay is described as follows: inhibition of ET-1 induced pressor response in anesthetized ganglionic blocked rats. It is filed as in vivo, rat (Sprague Dawley). As to conditions: IV, ET-1 1 nm/kg. Here is the method:
Antagonists were administered IV bolus (3, 10, 30, 100 μmol/kg, IV bolus) in separate groups of rats (5 minutes before ET-1 challenge [see Haleen, et al., J. Cardiovasc, Pharm., 22(Suppl. 8):598-5102 (1993)]). Duration of action of the antagonist was determined in conscious, chronically prepared normotensive rats. Rats were challenged with ET-1 (1.0 nmol/kg, IV bolus) on 5 consecutive days; Day =b 1 =l control and on Days 2-5 at 5, 20, 60, and 120 minutes following treatment with the antagonist. Separate groups of rats were used for each antagonist treatment.

[12] abbreviates: ERBA-A IC50, [125I]-ET-1, rabbit renal artery vascular smooth muscle cells.

Turning to `Cc1noc(NS(=O)(=O)c2cccc3c(N(C)C)cccc23)c1C` [5-(Dimethylemino)-N-(3,4-dimethyl-5-isoxazolyl)-1-naphthalenesulfonamide], in the assay on ETA [1], the oral antihypertensive effect entry is “demonstrated an oral antihypertensive effect”.
Consider `CC(C)C[C@@H]1NC(=O)[C@@H](C(C)C)NC(=O)[C@@H]2CCCN2C(=O)[C@@H](CC(=O)O)NC(=O)[C@@H](Cc2c[nH]c3ccccc23)NC1=O` [BQ-123] (cyclo(L[dW][dD]P[dV])), for which the “early cerebral vasospasm following SAH” value with cerebral vasospasm [2] (rabbit) and in the assay with cerebral vasospasm [3] was “prevents early cerebral vasospasm following SAH” in each case. For the same compound, in assay [4], the “ET-1 induced bronchoconstriction and tracheal smooth muscle contraction” value was “block ET-1 induced bronchoconstriction and tracheal smooth muscle contraction”. Further, in the assay with cerebral vasospasm [5], the “early cerebral vasospasm following subarachnoid hemorrhage” value is “prevent early cerebral vasospasm following subarachnoid hemorrhage”. The survival rate entry in the assay on endotoxic shock was “significantly increased the survival rate”.
Consider `COc1cccc(Oc2c(NS(=O)(=O)c3ccc(C(C)(C)C)cc3)ncnc2OCCO)c1` [Ro 46-2005], for which, in the assay with cerebral vasospasm [3] (rat with SAH), the “systemic arterial blood pressure” value is reported as “no significant effect on systemic arterial blood pressure”. For the same compound, the “early cerebral vasospasm following SAH” value in the assay with cerebral vasospasm [3] was “prevent early cerebral vasospasm following SAH”. Also, in the assay on cerebral vasospasm [3] (rats), the “efficacy in subarachnoid hemorrhage” value was “effective in models of acute renal ischemia and subarachnoid hemorrhage”. The “efficacy in acute renal ischemia” value in the assay on acute renal ischemia was “effective in models of acute renal ischemia”.
Regarding `COc1ccccc1Oc1c(NS(=O)(=O)c2ccc(C(C)(C)C)cc2)nc(-c2ncccn2)nc1OCCO` [Ro 47-0203, Bosentan], the “reduction of basilar artery cross-sectional area compared to sham” value in the assay on cerebral vasospasm [2] (rabbits with SAH) is 36±7%.
As usually defined, the IC50 is the concentration at which inhibition is half-maximal. As to `CCCOc1cccc(CC2=C(c3ccc4c(c3)OCO4)C(=O)OC2(O)c2ccc(OC)cc2)c1` (stereo not shown) [Example 159, 3-Benzo[1,3]dioxol-5-yl-5-hydroxy-5-(4-methoxyphenyl)-4-(3-propoxybenzyl)-5 H-furan-2-one], the IC50 amounted to 560 nM against ETB [6], 36 nM against ETA [7] and 12 nM on ETA [9] (setting [12]). Besides, the Kb on ETA [8] is 100 nM.
For the compound ET[8-21,11,15-Ala], the vasorelaxation entry in the assay with ETB [10] is listed as “caused vasorelaxation”.
Regarding `CCCOc1cccc(C/C(C(=O)c2ccc(OC)cc2)=C(/C(=O)O)c2ccc3c(c2)OCO3)c1` [Example 253, 2-Butenoic acid, 2-(1,3-benzodioxol-5-yl)-4-(4-methoxyphenyl)-4-oxo-3-[(3-propoxyphenyl)methyl]-, (Z)-, ion(1-) compound with 2-hydroxy-N,N,N-trimethylethanaminium (1:1)], the IC50 at human ETB receptor is 900 nM; on ETA [9] (read-out: ERBA-A IC50, [125I]-ET-1, rabbit renal artery vascular smooth muscle cells) it was 17 nM. Moreover, the “% Inhibition on ET-1 Induced Pressor Response” value in [11] (3 μmol/kg) was found to be 22%; in [11] (10 μmol/kg), 42%; in assay [11] (30 μmol/kg), 53%. Besides, the “VERA-A pA2” value at ETA [8] worked out at 7.0.
`COc1ccc(C2(O)OC(=O)C(c3ccc4c(c3)OCO4)=C2Cc2cccc(C(F)(F)F)c2)cc1` (stereo not shown) [Example 82, 3-Benzo[1,3]dioxol-5-yl-5-hydroxy-5-(4-methoxyphenyl)-4-(3-trifluoromethylbenzyl)-5H-furan-2-one]: the IC50 turned out to be 1300 nM at ETB [6], 140 nM against ETA [7] and 20 nM against ETA [9] (setting [12]). Further, the Kb at ETA [8] is 2510 nM.
Turning to N-Acetyl-ET[10-21,11,15-Ala], in the assay with ETB [10], the vasorelaxation result is listed as “caused vasorelaxation”.
Regarding ET[6-21, 1,3,11,15-Ala], the vasorelaxation entry in the assay on ETB [10] is given as “caused vasorelaxation”.
As for `COc1ccc(C(=O)/C(Cc2ccccc2)=C(\C(=O)O)c2ccc3c(c2)OCO3)cc1` [Example 171, 2-Butenoic acid, 2-(1,3-benzodioxol-5-yl)-4-(4-methoxyphenyl)-4-oxo-3-(phenylmethyl)-, (Z)-, ion(1-) compd. with 2-hydroxy-N,N,N-triethanaminium (1:1)], the IC50 came out at 2200 nM against ETB [6] and 39 nM against ETA [9] (setting [12]). Further, the “% Inhibition on ET-1 Induced Pressor Response” value came to 21% in assay [11] (3 μmol/kg), 26% in assay [11] (10 μmol/kg), 35% in [11] (30 μmol/kg) and 57% in assay [11] (100 μmol/kg).
